Tests used:
[1] = system: Klebsiella pneumoniae Kpn St147 (NDM-1 and KPC-2); test: MIC determination of ceftazidime with zinc chelator and avibactam (checkerboard, broth microdilution); type: cell-based; conditions: with CAZ and avibactam
From the text: The fractional inhibitory concentration (FIC) is defined as the concentration that kills when used in combination with another agent divided by the concentration that has the same effect when used alone. The FIC index (FICI) for the combination of two agents is the sum of their individual FIC values. […] The European Committee for Antimicrobial Susceptibility Testing (EUCAST) of the European Society of Clinical Microbiology and Infectious Diseases (ESCMID) 2000 adopts the following definitions to determine the susceptibility of bacteria to an antimicrobial agent (see EUCAST Definitive Document E. Def 1.2: Terminology relating to methods for the determination of susceptibility of bacteria to antimicrobial agents. Clin. Microbiol. Infect. 2000; 6(9): 503-508): • FICI value≤0.5; synergy • 0.5<FICI value≤1; additive effect • 1<FICI value≤2; indifferent effect • FICI≥2; antagonistic effect
Antimicrobial susceptibility testing (AST) by broth microdilution was performed according to The European Committee on Antimicrobial Susceptibility Testing. Reading guide for broth microdilution. Version 4.0, 2022 (see: http://www.eucast.org).
Checkerboard 96-well plates (Corning 3788) were made by conducting serial two-fold dilutions of CAZ in cation-adjusted Mueller Hinton II broth (caMHB; Thermo Scientific, T3462), in columns across the microtiter plate (64-0.03 μg/ml). Additionally, avibactam was added to rows 3 to 8 in concentrations of 64, 16, 8, 4, 1 and 0.25 μg/ml, respectively. The zinc chelator was added to the wells of the plate, where applicable. […] The first row in all plates was used as a positive control for CAZ only, and the second row included the zinc chelator in addition to CAZ (no avibactam added to rows 1 or 2). The zinc chelator was added at the indicated concentration to rows 3-8 of plates 2 and 3.
The effect of the combination of zinc chelator/CAZ/avibactam was tested on a clinically isolated Klebsiella pneumoniae Kpn St147 actively constitutionally expressing the two resistance mechanisms NDM-1 and KPC-2 simultaneously. As a negative control, bacteria+CAZ was tested alone. As a positive control, bacteria+CAZ+zinc chelator was used. In Tables 3 and 4, concentrations (μg/ml) of CAZ are given in the top row left to right and avibactam concentrations (μg/ml) are given top to bottom in column 1.
ΣFICI=MICA(combination)/MICA (alone)+MICB(combination)/MICB (alone)+MICC(combination)/MICC (alone)

[2] = system: Pseudomonas aeruginosa ST773 (NDM-1, OXA-395, PDC-16); test: Checkerboard MIC, fixed concentration of sBLI (Examples 18-23); type: cell-based
From the text: The antibiotics and serine β-lactamase-inhibitors (sBLIs) were purchased from the following suppliers: Ceftazidime (CAZ): Sigma-Aldrich; Cefepime (FEP): Sigma-Aldrich; Cefpodoxime (CEFP): MedChemExpress; Sulbactam (SUL): Sigma-Aldrich Avibactam (AVI): Biosynth; Vaborbactam (VAB): ABCR; Tazobactam (TAZ): Sigma-Aldrich; Taniborbactam (TAN): Sigma-Aldrich.
In each of Examples 3-23, the compound of Example 26 of WO 2018/033719 was employed as the zinc chelator. The following abbreviations are used in these examples: sBLI means serine-β-lactamase inhibitor; CFU means colony-forming unit, which is a group of microbes that grows from a single cell on a petri plate; DMSO means dimethyl sulfoxide; MHB means Mueller-Hinton broth; caMHB means cation-adjusted Mueller-Hinton broth; MIC means minimum inhibitory concentration—the lower the MIC, the more efficient the combination against the respective bacterial strain.
General Protocol 2 Used in Examples 11-23 Employing a Fixed Concentration of sBLI within Each Experiment:
Antimicrobial susceptibility testing (AST) by broth microdilution (MIC determination) was performed according to The European Committee on Antimicrobial Susceptibility Testing (EUCAST) guidelines (see Reading guide for broth microdilution Version 5.0, 2024: https://www.eucast.org).
Sterile clear round bottom polystyrene (non-treated) 96-well microplates (Corning 3788) were used for making serial two-fold dilutions of the antibiotic in cation-adjusted Mueller Hinton II broth (caMHB; Thermo Scientific, T3462, containing 29.4 μM Zn^2+ or MILLIPORE, 90922-500G, containing 5.6 μM Zn^2+), across the columns of the microtiter plate (128-0.06 μg/mL; columns 1-12).
The checkerboard plates were all modified by adding a serine β-lactamase inhibitor (sBLI) at a fixed concentration of 16 μg/mL. Additionally, the zinc chelator was added at various fixed concentrations. Samples were mixed so that all plates contained a control containing antibiotic alone (no sBLI, no zinc chelator), a sample containing antibiotic and sBLI (double combination; no zinc chelator), and a sample containing antibiotic, sBLI and zinc chelator (triple combination). All test wells used in each plate contained growth medium (caMHB), and inoculated bacteria at a final inoculum between 3-7×10^5 CFU/mL. […] Synergy for the triple combination (antibiotic, sBLI, and zinc chelator) was defined as when the MIC in any of the rows containing the zinc chelator in combination with antibiotic and sBLI (triple combination), was lower than for antibiotic alone and lower than for the antibiotic and sBLI double combination.
(§1) An X in rows 1-4 in the table indicates growth of the bacterial inoculum, while a blank cell indicates no growth. Concentrations (μg/mL) of CAZ are given in row 0. AVI and the zinc chelator were added in fixed concentrations (AVI at 16 μg/mL in rows 2-4, zinc chelator at 16 μg/mL in row 3 and at 8 μg/mL in row 4). As a control, the effect of CAZ alone was tested (row 1). All wells contained bacterial growth medium (caMHB, 29.4 μM Zn^2+) and were inoculated with the test bacterium. The grey cells indicate the CAZ MIC.
as §1, with “FEP” for “CAZ”, “SUL” for “AVI”, “(SUL” for “(AVI”
An X in rows 1-5 in the table indicates growth of the bacterial inoculum, while a blank cell indicates no growth. Concentrations (μg/mL) of CAZ are given in row 0. AVI and the zinc chelator were added in fixed concentrations (AVI at 16 μg/mL in rows 2-5, zinc chelator at 16 μg/mL in row 3, at 8 μg/mL in row 4, and at 4 μg/mL in row 5). […]

Compound: CN(C[C@H](O)[C@@H](O)[C@H](O)[C@H](O)CO)C(=O)c1ccc(CN(Cc2ccccn2)Cc2ccccn2)nc1 [zinc chelator]
- FICI Zinc Chelator ([1]; zinc chelator 8 μg/mL): 0.0039
- FICI Zinc Chelator ([1]; zinc chelator 16 μg/mL): 0.0078
- synergy with the zinc chelator ([2]; zinc chelator 4 μg/mL, with FEP and AVI 16 μg/mL, caMHB 5.6 μM Zn2+): Synergy
- synergy with the zinc chelator ([2]; zinc chelator 4 μg/mL, with FEP and SUL 16 μg/mL, caMHB 5.6 μM Zn2+): Synergy
- synergy with the zinc chelator ([2]; zinc chelator 8 μg/mL, with CAZ and AVI 16 μg/mL, caMHB 5.6 μM Zn2+): Synergy
- synergy with the zinc chelator ([2]; zinc chelator 8 μg/mL, with CAZ and AVI 16 μg/mL, caMHB 29.4 μM Zn2+): Synergy
- synergy with the zinc chelator ([2]; zinc chelator 8 μg/mL, with FEP and AVI 16 μg/mL, caMHB 5.6 μM Zn2+): Synergy
- synergy with the zinc chelator ([2]; zinc chelator 8 μg/mL, with FEP and SUL 16 μg/mL, caMHB 5.6 μM Zn2+): Synergy
- synergy with the zinc chelator ([2]; zinc chelator 8 μg/mL, with FEP and TAZ 16 μg/mL, caMHB 5.6 μM Zn2+): Synergy
- synergy with the zinc chelator ([2]; zinc chelator 16 μg/mL, with CAZ and AVI 16 μg/mL, caMHB 5.6 μM Zn2+): Synergy
- synergy with the zinc chelator ([2]; zinc chelator 16 μg/mL, with CAZ and AVI 16 μg/mL, caMHB 29.4 μM Zn2+): Synergy
- synergy with the zinc chelator ([2]; zinc chelator 16 μg/mL, with FEP and AVI 16 μg/mL, caMHB 5.6 μM Zn2+): Synergy
- synergy with the zinc chelator ([2]; zinc chelator 16 μg/mL, with FEP and SUL 16 μg/mL, caMHB 5.6 μM Zn2+): Synergy
- synergy with the zinc chelator ([2]; zinc chelator 16 μg/mL, with FEP and SUL 16 μg/mL, caMHB 29.4 μM Zn2+): Synergy
- synergy with the zinc chelator ([2]; zinc chelator 16 μg/mL, with FEP and TAZ 16 μg/mL, caMHB 5.6 μM Zn2+): Synergy
